The term solubility (kinetic) denotes the concentration staying in solution when a stock, usually in DMSO, is diluted into the medium.

In brackets after ≈: the same amount, converted by molar mass.

The conditions of this series: buffer; pH 7.4; 200.0 µM.
`Brc1ccsc1-c1csc(-c2ccncc2)n1` came in with a solubility (kinetic) of 0.0027 mg/mL (≈ 8.35 µM).

On to `COc1cc(C(=O)NC2CCCc3ccccc32)cc(OC)c1OC` (stereo not drawn), for which the kinetic solubility is 0.0059 mg/mL (≈ 17.3 µM).

Turning to `c1ccc(-c2nc3ccccc3[nH]2)cc1`, the kinetic solubility is 0.0219 mg/mL (≈ 113 µM).

`CC(C)N(C1=CC(=O)OC12CCCCC2)C(C)C`: the kinetic solubility is over 0.0377 mg/mL.

Consider `COc1ccc(NC(=O)CN2C(=O)COc3ccc(C)cc32)cc1`, for which the kinetic solubility was 0.0033 mg/mL (≈ 10.1 µM).

`O=Cc1ccc(OCCN2CCCC2=O)cc1` registered a solubility (kinetic) of over 0.035 mg/mL.

Molecule `C[C@@H]1CC2(CCCC[N+]2(C)C)C[C@H]1C.[I-]` came in with a kinetic solubility of over 0.0485 mg/mL.

`COc1ccc(-c2csc(NC(=O)c3ccoc3C)n2)cc1`: the kinetic solubility is under 0.0003 mg/mL.

In turn, `O=C(O)/C=C/C(=O)Nc1ccc(Oc2ncnc3cc(Cl)ccc23)nc1` displayed a kinetic solubility of over 0.0556 mg/mL.

Turning to `CCC1Sc2ccccc2N(CC(=O)NC2CCCCC2)C1=O` (stereo not drawn), the kinetic solubility is over 0.0499 mg/mL.

The molecule `COC(=O)c1ccccc1NC(=O)CSc1nc2ncccc2[nH]1` gave a kinetic solubility of 0.0087 mg/mL (≈ 25.4 µM).

`CCOC(=O)C(=O)N/N=C(/c1ccccc1)c1ccc(OC)cc1` registered a solubility (kinetic) of over 0.049 mg/mL.

Molecule `Cc1nnc(-c2ccc(N3CCOCC3)c([N+](=O)[O-])c2)o1` gave a solubility (kinetic) of over 0.0435 mg/mL.

Turning to `CC1CCCCC1NC(=O)c1ccncc1` (stereo not drawn), the kinetic solubility was over 0.0327 mg/mL.

With `CCn1c(N2CCN(C(=O)c3ccco3)CC2)nc2ccccc21`, the kinetic solubility amounted to 0.0358 mg/mL (≈ 110 µM).

Take `CCCNC(=O)c1ccc2c(c1)S(=O)(=O)c1ccccc1C2=O`: the solubility (kinetic) was determined as 0.0079 mg/mL (≈ 24 µM).

Turning to `O=C(NC1CCOc2ccccc21)c1ccccn1` (stereo not drawn), the solubility (kinetic) was found to be 0.0361 mg/mL (≈ 142 µM).

Take `COc1ccc(N2CCN(C(=O)COCC(=O)O)CC2)cc1`: the solubility (kinetic) was over 0.0463 mg/mL.

`CCOC(=O)C1=C(C)N=C2SC(C)C(=O)N2C1c1ccccc1` (stereo not drawn) returned a kinetic solubility of 0.0485 mg/mL (≈ 147 µM).

`O=C(COC(=O)/C=C/c1ccc(S(=O)(=O)N2CCOCC2)cc1)Nc1ccc(F)c(F)c1F` yielded a solubility (kinetic) of 0.0116 mg/mL (≈ 23.9 µM).

Molecule `Cn1cccc1C(=O)OCC(=O)N1CCN(c2ccccc2)CC1` showed a kinetic solubility of 0.0487 mg/mL (≈ 149 µM).

`Cc1cc(C)nc(Oc2ccc(Br)cc2)n1` had a solubility (kinetic) of 0.0355 mg/mL (≈ 127 µM).

On to `CSc1ncccc1C(=O)NC1CCCCCCC1`, for which the solubility (kinetic) stood at 0.0217 mg/mL (≈ 77.9 µM).

For `CN1C(=O)CSC1=Nc1cccc(Cl)c1`, the kinetic solubility was determined as 0.0342 mg/mL (≈ 142 µM).

In turn, `COC(=O)C1CN(C(=O)COc2cc(C)cc(C)c2)c2ccccc2O1` (stereo not drawn) had a solubility (kinetic) of 0.0037 mg/mL (≈ 10.4 µM).

Consider `Cc1nc2ccc(C(=O)O)cc2c2c1CC(CN)O2` (stereo not drawn), for which the solubility (kinetic) was 0.0197 mg/mL (≈ 76.3 µM).

`CCCCN(C)Cc1c(C)[nH]c2c(ccc3ccccc32)c1=O` yielded a solubility (kinetic) of over 0.0463 mg/mL.

Regarding `O=S(=O)(Nc1cccc(F)c1)c1cccc2nsnc12`, the kinetic solubility was over 0.0464 mg/mL.

As to `O=C(NCC1CCCO1)c1c(O)nc2sccn2c1=O` (stereo not drawn), the kinetic solubility is over 0.0443 mg/mL.

The molecule `Cc1ccccc1CN(C)C1CCN(C)CC1` returned a kinetic solubility of 0.0317 mg/mL (≈ 136 µM).

`COc1cccc(C(=O)NCCSCc2ccccc2Cl)c1`: the kinetic solubility was 0.016 mg/mL (≈ 47.6 µM).

`C=CCn1c(O)c(C(C)=NC2CCN(Cc3ccccc3)CC2)c(=O)[nH]c1=O` displayed a kinetic solubility of 0.0536 mg/mL (≈ 140 µM).

`CC(C)[C@H](NC(=O)c1ccccc1F)C(=O)OCCN1C(=O)c2ccccc2C1=O`: the solubility (kinetic) was over 0.0619 mg/mL.

Regarding `CCN(CC(=O)N1CCOCC1)S(=O)(=O)c1ccc(F)cc1`, the kinetic solubility was 0.0412 mg/mL (≈ 125 µM).

In turn, `O=C(CSc1nc2ccccc2o1)NCC1CCCO1` (stereo not drawn) came in with a kinetic solubility of over 0.0439 mg/mL.

Molecule `COc1ccc(CCNC(=S)Nc2ccccc2)cc1` showed a solubility (kinetic) of 0.0411 mg/mL (≈ 144 µM).

Turning to `O=C(CNC(=O)c1ccccc1F)NCc1ccccn1`, the kinetic solubility is over 0.0431 mg/mL.

As to `COc1ccc(C=O)cc1CN1C(=O)c2ccccc2C1=O`, the kinetic solubility worked out at 0.0368 mg/mL (≈ 125 µM).

With `CC(OC(=O)c1ccncc1)C(=O)NC1CCCC1` (stereo not drawn), the solubility (kinetic) was over 0.0393 mg/mL.

On to `COc1ccc(C(=O)NCCNc2nc3c(C)cccc3cc2C#N)cc1`, for which the kinetic solubility came to 0.0004 mg/mL (≈ 1.11 µM).

Molecule `Cc1cccc(NC(=O)Nc2ccc(F)cc2)n1` displayed a kinetic solubility of 0.0016 mg/mL (≈ 6.52 µM).

In turn, `Cc1cccc(C(=O)NCCNC(=O)c2ccco2)c1` displayed a solubility (kinetic) of 0.0345 mg/mL (≈ 127 µM).

In turn, `Br.COc1ccc(NC2=NCCCCC2)cc1` showed a solubility (kinetic) of 0.0447 mg/mL.

`CC(=O)Nc1ccc(CN2CCN(CC=C(C)C)C(CCO)C2)cc1` (stereo not drawn) gave a kinetic solubility of over 0.0518 mg/mL.

`O=C(NC1C2CC3CC(C2)CC1C3)C1CCCCC1` (stereo not drawn) displayed a kinetic solubility of 0.0016 mg/mL (≈ 6.12 µM).

Take `COc1ccc(/C=C/C(=O)Nc2ccncc2)cc1OC`: the solubility (kinetic) is 0.0298 mg/mL (≈ 105 µM).

For the molecule `Cc1ccsc1CN(C)C(=O)c1ccc(Oc2ccccc2)cc1`, the solubility (kinetic) amounted to 0.0033 mg/mL (≈ 9.78 µM).

`C=CCNc1nc2ccccc2c(=O)[nH]1`: the kinetic solubility was found to be 0.0291 mg/mL (≈ 145 µM).

The molecule `Cc1oc(C(C)(C)C)cc1C(=O)NCc1ccc2c(c1)OCO2` displayed a kinetic solubility of under 0.0007 mg/mL.

With `CC(=O)Nc1nc(C)c(C(C)C)s1`, the kinetic solubility is over 0.0297 mg/mL.

Consider `COc1cc2c(cc1Cl)C(=O)C(F)(c1ccccc1)C(=O)N2` (stereo not drawn), for which the kinetic solubility turned out to be 0.0008 mg/mL (≈ 2.5 µM).

`S=C(NC1CCCCC1)N1CCOCC1` registered a kinetic solubility of 0.0338 mg/mL (≈ 148 µM).

For the molecule `NC(=S)NC1CCS(=O)(=O)C1` (stereo not drawn), the solubility (kinetic) was over 0.0291 mg/mL.

The values are drawn from PubChem BioAssay AID1996.
